These results are taken from PubChem BioAssay (NCI).

Holding throughout (test): NCI tumour cell line growth inhibition, 48 h
For assay [1], the system named is MDA-MB-435.
Assay [2] deals with SF-268 CNS.
Assay [3] relates to NCI-H23 lung.
For assay [4], the system named is NCI-H460 lung.
For assay [5], the system named is MDA-N.
For assay [6], the system named is SW-620 colon.
Assay [7] relates to PC-3 prostate.
The subject of assay [8] is MOLT-4 leukemia.
Assay [9] concerns HCT-15 colon.
Assay [10] deals with RPMI-8226 leukemia.
The test system of assay [11] is SK-MEL-28 melanoma.
In assay [12] the test system is RXF 393 renal.
In assay [13] the test system is NCI/ADR-RES ovarian.
Assay [14] relates to SK-MEL-2 melanoma.
Assay [15] has as its system HL-60(TB) leukemia.
In assay [16] the test system is SNB-75 CNS.
Assay [17] relates to HT29 colon.
In assay [18] the test system is OVCAR-3 ovarian.
For assay [19], the system named is SN12C renal.
Assay [20] relates to MDA-MB-231 breast.

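All cell lines were grown in 96-well plates and treated with compound for 48 hours. The concentration for full growth arrest is given as TGI.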 Some results are limits rather than exact numbers.

`Cc1cc2c(cc1C)C(=O)/C(=C/c1ccccc1C(=O)O)C2`: the TGI in assay [1] was more than 100 µM; in assay [2], more than 100 µM; in assay [3], 66.7 µM; in assay [4], more than 100 µM; in assay [5], more than 100 µM; in assay [6], more than 100 µM. The TGI is more than 100 µM in assay [7]; more than 100 µM in assay [8]; more than 100 µM in assay [9]; 75.2 µM in [10]; more than 100 µM in [11]; more than 100 µM in assay [12]. Also, the TGI in [13], in assay [14], in assay [15], in [16], in assay [17] and in [18] was more than 100 µM in each case. Moreover, the TGI in assay [19] is more than 100 µM.
As to `Cc1cccc(/C=N/NC(=S)N(C)CCc2ccccn2)n1`, the TGI in assay [1] is more than 100 µM; in assay [2], more than 100 µM; in [20] it was more than 100 µM; in assay [3], more than 100 µM; in assay [4] it was more than 52.5 µM; in assay [5], more than 100 µM. For the same molecule, the TGI in assay [6] was more than 100 µM; in [7], more than 100 µM; in [8] it was more than 100 µM; in assay [9], more than 100 µM; in [10] it was 0.388 µM; in assay [11], more than 100 µM. Besides, the TGI in [14] is more than 100 µM; in assay [16], 21.9 µM; in [17] it was more than 100 µM; in assay [18], more than 100 µM; in assay [19] it was more than 100 µM.
As for `O=c1c2n[nH]nc2nc2n1CC(c1ccccc1)S2` (stereo not given), the TGI in assay [1], in [2], in assay [20], in assay [3], in assay [4] and in assay [5] was more than 100 µM each time. In addition, the TGI is more than 100 µM in assay [6]; more than 100 µM in assay [8]; more than 100 µM in [9]; more than 100 µM in assay [10]; more than 100 µM in [11]; 94.9 µM in assay [12]. Also, the TGI in assay [13], in assay [15], in [16], in [18] and in assay [19] was more than 100 µM in each case.
Consider `Cn1ccoc1=Nc1ccc(Cl)c(Cl)c1`, for which the TGI in [1], in assay [2], in [20], in [3], in [4] and in [5] was more than 10 µM each time. For the same molecule, the TGI in [6], in [7], in [8], in assay [9], in assay [10] and in assay [11] was more than 10 µM in each case. The TGI in [13], in [16], in [17], in assay [18] and in assay [19] was more than 10 µM throughout.
Consider `COc1ccc2nc3c([N+](=O)[O-])ccc(NCCN(C)C)c3c(NCCN(C)C)c2c1`, for which the TGI is 3.01 µM in [1]; more than 10 µM in assay [2]; 2.67 µM in assay [20]; 3.04 µM in assay [3]; 3.13 µM in assay [5]; 3.25 µM in assay [6]. The TGI amounted to 2.02 µM in assay [7]; 0.732 µM in assay [8]; 2.59 µM in assay [9]; 1.97 µM in assay [10]; 4.15 µM in assay [11]; 2.33 µM in assay [12]. In addition, the TGI is 3.02 µM in assay [15], 3.51 µM in [16], 4.51 µM in assay [17] and 2.78 µM in assay [19].
Consider `O=C(NCCCNCCCCNCCCNC(=O)c1cc(-c2ccccc2)nc2ccccc12)c1cc(-c2ccccc2)nc2ccccc12`, for which the TGI was more than 100 µM in assay [20]; more than 24.1 µM in [3]; 19.7 µM in assay [4]; 3.17 µM in [5]; 13.1 µM in [6]; 4.33 µM in assay [7]. The TGI in assay [8] worked out at 3.73 µM; in assay [9] it was 44.1 µM; in assay [11], 3.3 µM; in assay [12] it was 74.2 µM; in assay [13] it was 74.2 µM; in assay [15], 3.8 µM. For the same molecule, the TGI came out at 3.57 µM in [17], 15.9 µM in assay [18] and 7.88 µM in assay [19].
On to `O=c1c2ccccc2nc2sc(/N=C/C=C/c3ccccc3)nn12`, for which the TGI in [1], in assay [2], in assay [3], in assay [4], in [5] and in assay [6] was more than 100 µM in each case. Moreover, the TGI in assay [7], in assay [8], in assay [9], in [10], in assay [11] and in assay [12] was more than 100 µM in each case. Further, the TGI in assay [13], in assay [14], in assay [16], in [17], in assay [18] and in [19] was more than 100 µM throughout.
Consider `O=c1c2cc(S(=O)(=O)O)ccc2nc(COc2ccc(Oc3ccc(Cl)cc3Cl)cc2)n1C(=S)Nc1ccc(Cl)cc1`, for which the TGI in assay [1] is 39.3 µM; in [2] it was 31.3 µM; in assay [3], 36.2 µM; in assay [4], 35.8 µM; in [5], 51 µM; in assay [6], 49.4 µM. The TGI in [7] is more than 100 µM; in assay [9] it was 50.5 µM; in assay [10] it was 81.5 µM; in [12], 31 µM; in assay [13], 37.9 µM; in [14], 37.4 µM. Further, the TGI was determined as 4.07 µM in assay [15]; 41.5 µM in [16]; 36.4 µM in [17]; 51.7 µM in [18]; 34.7 µM in assay [19].
Turning to `Cc1cc(-c2cscn2)c(O)c([N+](=O)[O-])c1`, the TGI in assay [1], in [3], in [4], in assay [5], in assay [6] and in assay [7] was more than 100 µM in each case. Further, the TGI in assay [9], in assay [10], in [13], in assay [14], in assay [15] and in assay [17] was more than 100 µM in each case. Also, the TGI in assay [19] is more than 100 µM.
As to `N#C/C(C(=O)Nc1ccc(Cl)cc1)=C(/N)N1CCOCC1`, the TGI in assay [1], in assay [3], in assay [4], in assay [5], in assay [6] and in assay [7] was more than 100 µM each time. For the same molecule, the TGI in assay [8], in assay [9], in assay [10], in [11], in assay [13] and in [14] was more than 100 µM each time. In addition, the TGI in assay [16], in [17], in [18] and in [19] was more than 100 µM in each case.
Take `C=C(CO)[C@H]1Oc2ccc(C(C)=O)cc2[C@@H]1O`: the TGI in [1] was more than 100 µM; in assay [2] it was more than 100 µM; in assay [20], more than 100 µM; in assay [3], more than 100 µM; in [4], more than 100 µM; in [5], 56.5 µM. For the same molecule, the TGI in assay [6], in assay [7], in assay [8], in [9], in [10] and in [11] was more than 100 µM each time. In addition, the TGI in [12], in assay [14], in assay [15], in assay [16], in [17] and in assay [18] was more than 100 µM each time. This molecule also returned a TGI in assay [19] of more than 100 µM.
Consider `CCOC(=O)C(NC(=O)c1cccc(Cl)c1)(N1CCN(c2cc3c(cc2F)c(=O)c(C(=O)O)cn3C2CC2)CC1)C(F)(F)F` (stereo not given), for which the TGI in assay [1] was determined as 28.8 µM; in assay [2], 29.1 µM; in assay [20], 34.2 µM; in [3], 37.1 µM; in [4] it was 42.9 µM; in assay [5], 29.4 µM. Besides, the TGI in [6] worked out at 27.2 µM; in assay [7], 34.6 µM; in assay [8], 15.9 µM; in assay [10] it was 23.6 µM; in assay [11] it was 32.4 µM; in assay [12], 34.4 µM. Besides, the TGI in assay [14] amounted to 29.8 µM; in [15] it was 6.64 µM; in [16], 50.7 µM; in [18] it was 29.5 µM; in assay [19], 93.9 µM.
With `CNc1ncnc2c1cnn2CCCCO`, the TGI in assay [1], in [2], in assay [20], in assay [3], in [4] and in [5] was more than 100 µM each time. Also, the TGI in assay [6], in assay [7], in assay [8], in assay [9], in assay [10] and in assay [11] was more than 100 µM each time. Moreover, the TGI in assay [12], in assay [14], in assay [15], in [17], in [18] and in assay [19] was more than 100 µM each time.
Consider `COC(=O)/C=C(\C)CC/C=C(\C)CCC(O)C(C)(C)O` (stereo not given), for which the TGI in [20] was more than 100 µM; in assay [3] it was 98.3 µM; in assay [4], 37.8 µM; in assay [5] it was 57.8 µM; in assay [6], 53.5 µM; in [7], 30.8 µM. Besides, the TGI in assay [8] was determined as 39 µM; in assay [9], 48 µM; in assay [11] it was 38.2 µM; in [12], 59.9 µM; in assay [13], 52.5 µM; in assay [14], 36.3 µM. In addition, the TGI was 42.2 µM in assay [15]; more than 100 µM in assay [16]; more than 100 µM in assay [17]; 65.3 µM in [18]; 37.5 µM in assay [19].
`CC(NC(=O)OC(C)(C)C)C(=O)NC(Cc1ccccc1)C(=O)NCC(=O)Oc1c(Cl)c(Cl)c(Cl)c(Cl)c1Cl` (stereo not given): the TGI in assay [20] is 36 µM; in assay [3], 40.7 µM; in [4] it was 63.3 µM; in assay [5] it was 90.6 µM; in assay [6], 47 µM; in assay [7], 49.4 µM. The TGI in [8] came to 59.3 µM; in [10] it was 54.9 µM; in [11] it was 71.1 µM; in assay [12] it was 35.4 µM; in assay [14], 73.1 µM; in assay [15], 53.3 µM. In addition, the TGI was more than 100 µM in assay [16], 73.2 µM in assay [17] and 30.4 µM in [19].
With `N#CC1=C(N)OC(c2cccc([N+](=O)[O-])c2)C1(C#N)C#N` (stereo not given), the TGI in [1] was 59.2 µM; in [2], 87 µM; in assay [3], 39.3 µM; in assay [5], 62.6 µM; in assay [7], 51.4 µM; in assay [9], 34.3 µM. Besides, the TGI in assay [10] was 47 µM; in [12], 43.3 µM; in assay [13], more than 100 µM; in [14], 40.4 µM; in assay [15], more than 100 µM; in assay [16], 24.7 µM. For the same molecule, the TGI in assay [17] was 37.2 µM; in assay [19], more than 100 µM.
As for `CCCCCCC1CC(=O)C1(Cl)Cl` (stereo not given), the TGI in [2] is 66.5 µM; in [20], 68.5 µM; in assay [3] it was 57.7 µM; in assay [5], 85 µM; in assay [6], more than 100 µM; in assay [7], more than 100 µM. Besides, the TGI in [8] was 52.1 µM; in assay [9] it was 99.6 µM; in assay [10], 2.48 µM; in assay [13], more than 100 µM; in assay [14], 68.3 µM; in [15], 44.1 µM. Also, the TGI came out at 36 µM in assay [16], 66.8 µM in assay [17] and 98.1 µM in assay [19].
